Patent US11306063B2, “Heterocyclic naphthoquinones derivatives for use in the treatment of cancers including Cushing disease” (Commissariat a l'Energie Atomique et aux Energies …, priority 2016, dated 2022)
Like-named read-outs stand apart in the source and are kept apart here.

Columns and labels:
Type in all cases: biochemical
[1] = target: T1, USP8^CD (purified catalytic domain of USP8) (Homo sapiens, UniProt P40818); experiment: Inhibition of purified USP8^CD enzymatic activity (Ub-AMC or Ub-Rho substrate); settings: for inhibition at 1 µM: 1 μM compound; for inhibition at 0.01 µM: 0.01 μM compound; for inhibition at 0.05 µM: 0.05 μM compound; for inhibition at 10 µM: 10 μM compound; for IC50: read-out: IC50 USP8 CD
T1 construct: the purified catalytic domain of USP8 (USP8^CD, in-house purified); made in house; host or cells: E. coli BL21 Gold
T1 sequence (P40818 777-1109 limits assumed): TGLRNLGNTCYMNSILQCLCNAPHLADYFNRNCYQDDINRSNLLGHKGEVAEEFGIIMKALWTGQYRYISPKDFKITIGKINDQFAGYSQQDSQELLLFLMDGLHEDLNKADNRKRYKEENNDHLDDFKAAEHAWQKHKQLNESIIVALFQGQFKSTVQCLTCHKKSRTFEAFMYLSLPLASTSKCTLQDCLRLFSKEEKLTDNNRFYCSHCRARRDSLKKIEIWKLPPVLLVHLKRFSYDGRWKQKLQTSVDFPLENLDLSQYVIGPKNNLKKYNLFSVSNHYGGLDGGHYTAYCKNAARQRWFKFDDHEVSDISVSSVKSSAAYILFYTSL
Description: (§1) USP2CD or USP8CD were expressed in E. coli BL21 Gold. Cells were grown in LB Miller to mid-log phase and induced by addition of 0.5 mM IPTG for USP2CD for 5 h at 20° C., while 1 mM IPTG was added for USP8CD for 3 h at 37° C. Then, cells were harvested and frozen at −80° C.
For His-tagged USP8CD, cells were resuspended in buffer A (50 mM TRIS pH 8.0, 500 mM NaCl, 2 mM Imidazole) and lysed using a sonicator. The lysate was clarified by centrifugation and applied to Ni Sepharose6 Fast Flow resin (GE Healthcare). The resin was sequentially washed first with buffer A containing 10 mM Imidazole then with buffer A containing 20 mM Imidazole, and finally with buffer A containing 50 mM Imidazole. Protein sample was eluted from the resin using buffer A containing 300 mM Imidazole. The eluted protein was buffer exchanged by gel-filtration on a Superdex 200 10/300 GL column (GE Healthcare) equilibrated in Buffer B (20 mM HEPES pH 7.5, 300 mM NaCl, 2 mM dithiothreitol (DTT)).
(§2) Enzymatic assay was performed in a HEPES buffer (50 mM pH7.6 1 mM DTT, 2% glycerol, 0.5 mM EDTA) or in a Tris buffer (40 mM pH7.4 1 mM DTT, 5% glycerol, 0.05 mg/ml BSA) respectively, following manufacturer's instructions. Compounds were added to the reaction mixture just prior to the substrate. The enzymatic reaction kinetics was monitored through the apparition of fluorescence due to the hydrolysis of the peptidyl Ub-AMC or Ub-Rho bound over 20 or 30 minutes.
(§3) Medium value out of duplicates is reported.

[2] = target: T2, USP2 full length (USP2^FL) (Homo sapiens, UniProt O75604); experiment: Inhibition of Ub-AMC hydrolysis by USP2 full length; settings: Ub-AMC at 1 μM, Table 1a; for inhibition at 1 µM: 1 μM compound; for inhibition at 5 µM: 5 μM compound; for inhibition at 25 µM: 25 μM compound; for inhibition at 50 µM: 50 μM compound
T2 construct: purchased BioSciences 80352
T2 sequence (O75604 1-605): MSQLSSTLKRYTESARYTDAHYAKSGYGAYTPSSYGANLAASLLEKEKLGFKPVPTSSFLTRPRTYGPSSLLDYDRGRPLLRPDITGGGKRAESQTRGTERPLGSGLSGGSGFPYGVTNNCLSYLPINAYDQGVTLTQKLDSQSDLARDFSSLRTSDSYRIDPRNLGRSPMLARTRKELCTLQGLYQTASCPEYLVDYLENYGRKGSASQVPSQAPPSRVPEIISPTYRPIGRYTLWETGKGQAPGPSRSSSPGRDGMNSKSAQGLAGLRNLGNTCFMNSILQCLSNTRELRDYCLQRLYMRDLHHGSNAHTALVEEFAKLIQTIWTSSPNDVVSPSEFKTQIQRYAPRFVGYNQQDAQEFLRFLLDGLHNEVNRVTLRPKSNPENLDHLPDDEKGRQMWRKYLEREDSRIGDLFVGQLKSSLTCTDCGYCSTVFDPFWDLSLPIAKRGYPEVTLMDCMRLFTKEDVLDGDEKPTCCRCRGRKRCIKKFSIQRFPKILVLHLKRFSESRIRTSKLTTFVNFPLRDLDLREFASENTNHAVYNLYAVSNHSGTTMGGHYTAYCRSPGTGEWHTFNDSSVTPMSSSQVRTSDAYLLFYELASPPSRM
Description: as §2

[3] = target: T3, USP2^CD (purified catalytic domain of USP2) (Homo sapiens, UniProt O75604); experiment: Inhibition of purified USP2^CD enzymatic activity (Ub-AMC or Ub-Rho substrate); settings: for inhibition at 0.01 µM: 0.01 μM compound; for inhibition at 0.05 µM: 0.05 μM compound; for inhibition at 0.1 µM: 0.1 μM compound; for inhibition at 0.5 µM: 0.5 μM compound; for inhibition at 1 µM: 1 μM compound; for inhibition at 5 µM: 5 μM compound; for inhibition at 10 µM: 10 μM compound; for inhibition at 25 µM: 25 μM compound; for inhibition at 50 µM: 50 μM compound; for IC50: read-out: IC50 USP2 CD
T3 construct: The purified catalytic domain of USP2 (USP2^CD, in-house purified); His; made in house; host or cells: E. coli BL21 Gold
T3 sequence (O75604 267-599 limits assumed): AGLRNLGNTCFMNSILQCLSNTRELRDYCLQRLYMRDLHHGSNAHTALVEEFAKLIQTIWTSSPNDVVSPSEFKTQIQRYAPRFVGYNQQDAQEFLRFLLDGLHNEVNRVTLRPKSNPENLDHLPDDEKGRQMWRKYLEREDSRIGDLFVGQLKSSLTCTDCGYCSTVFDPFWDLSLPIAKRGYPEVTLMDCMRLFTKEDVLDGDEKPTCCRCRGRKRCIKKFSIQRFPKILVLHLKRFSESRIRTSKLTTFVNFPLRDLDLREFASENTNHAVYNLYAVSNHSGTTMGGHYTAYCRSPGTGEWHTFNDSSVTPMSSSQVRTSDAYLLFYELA
Description: as §1
For His-tagged USP2CD, cells were resuspended in buffer C (10 mM TRIS pH 8.0, 100 mM NaCl, 10 mM Imidazole) and lysed using a sonicator. The lysate was clarified by centrifugation and applied to Ni Sepharose6 Fast Flow resin (GE Healthcare). The resin was sequentially washed with buffer C, then with buffer C containing 50 mM Imidazole. Protein sample was eluted from the resin using buffer C containing 250 mM Imidazole. The eluted protein was buffer exchanged by gel-filtration on a Superdex 200 10/300 GL column (GE Healthcare) equilibrated in Buffer D (15 mM Bis-TRIS pH 6.0, 100 mM NaCl, 1 mM dithiothreitol (DTT)).
as §2, §3

[4] = 0.1 μM compound, Ub-AMC at 1 μM, Table 1a
[5] = 0.5 μM compound, Ub-AMC at 1 μM, Table 1a
[6] = 5 μM compound, Ub-AMC at 1 μM, Table 1a
[7] = 25 μM compound, Ub-AMC at 1 μM, Table 1a
[8] = 50 μM compound, Ub-AMC at 1 μM, Table 1a
[9] = Ub-AMC substrate at 1 μM, Table 2b
[10] = Ub-Rhodamine substrate at 0.1 μM, Table 2c

| Structure (SMILES) | USP8^CD % inhibition [1, 4] | USP8^CD % inhibition [1, 5] | USP8^CD % inhibition [1, 8] | inhibition at 1 µM [2] | inhibition at 5 µM [2] | inhibition at 25 µM [2] | inhibition at 50 µM [2] | inhibition at 0.01 µM ([1]; Table 1d) | inhibition at 0.05 µM ([1]; Table 1d) | inhibition at 0.1 µM ([1]; 0.1 μM compound, Table 1d) | inhibition at 0.5 µM ([1]; 0.5 μM compound, Table 1d) | inhibition at 1 µM ([1]; Table 1b) | inhibition at 1 µM ([1]; Table 1d) | inhibition at 5 µM ([1]; 5 μM compound, Table 1b) | inhibition at 5 µM ([1]; 5 μM compound, Table 1d) | inhibition at 10 µM ([1]; Table 1d) | inhibition at 25 µM ([1]; 25 μM compound, Table 1b) | inhibition at 50 µM ([1]; 50 μM compound, Table 1b) | IC50 [1, 9] | IC50 [3, 9] | also measured |
| --- | --- | --- | --- | --- | --- | --- | --- | --- | --- | --- | --- | --- | --- | --- | --- | --- | --- | --- | --- | --- | --- |
| Cc1ccc(S(=O)(=O)Cc2nc3c(nc2CS(=O)(=O)c2ccc(C)cc2)C(=O)c2ccccc2C3=O)cc1 [PCR7985] | 1% | 20% | 98% | 33% | 49% | 59% | 95% |  |  |  |  |  |  |  |  |  |  |  |  |  | inhibition at 1 µM ([1]; Ub-AMC at 1 μM, Table 1a): 55%; USP8^CD % inhibition [1, 6]: 23%; USP8^CD % inhibition [1, 7]: 61% |
| O=C1c2ccccc2C(=O)c2nc(CS(=O)(=O)c3ccccc3)c(CS(=O)(=O)c3ccccc3)nc21 [PCR7986] | 1% | 13% | 36% | 46% | 74% | 78% | 92% |  |  |  |  |  |  |  |  |  |  |  |  |  |  |
| O=C1c2ccccc2C(=O)c2nc(CS(=O)(=O)c3ccc(F)cc3)c(CS(=O)(=O)c3ccc(F)cc3)nc21 [PCR7993] | 0% | 16% | 102% | 29% | 59% | 58% | 98% |  |  |  |  |  |  |  |  |  |  |  |  |  | inhibition at 1 µM ([1]; Ub-AMC at 1 μM, Table 1a): 34%; USP8^CD % inhibition [1, 6]: 22%; USP8^CD % inhibition [1, 7]: 101% |
| COc1ccc(S(=O)(=O)Cc2nc3c(nc2CS(=O)(=O)c2ccc(OC)cc2)C(=O)c2ccccc2C3=O)cc1 [PCR7994] |  |  |  |  |  |  |  | -7% | -13% | -23% | 18% | 62% | 31% | 68% | 52% | 73% | 91% | 100% | 5000 nM | > 10 µM | inhibition at 0.01 µM ([3]; Table 1c): -8%; inhibition at 0.05 µM ([3]; Table 1c): -12%; inhibition at 0.1 µM ([3]; Table 1c): 2%; inhibition at 0.5 µM ([3]; Table 1c): 26%; inhibition at 1 µM ([3]; Table 1b): -9%; inhibition at 1 µM ([3]; Table 1c): 5%; inhibition at 5 µM ([3]; Table 1b): 22%; inhibition at 5 µM ([3]; Table 1c): 8%; inhibition at 10 µM ([3]; Table 1c): 17%; inhibition at 25 µM ([3]; Table 1b): 53%; inhibition at 50 µM ([3]; Table 1b): 50% |
| O=C1c2ccccc2C(=O)c2nc(CBr)c(CBr)nc21 [PCR8132] |  |  |  |  |  |  |  |  |  |  |  |  |  |  |  |  |  |  | 4500 nM | 17 µM |  |
| CS(=O)(=O)Cc1nc2c(nc1CS(C)(=O)=O)C(=O)c1ccccc1C2=O [VIN6076] |  |  |  |  |  |  |  | 27% | 14% | 30% | 47% | 77% | 85% | 100% | 90% | 98% | 106% | 103% | 500 nM | > 10 µM | IC50 [1, 10]: 10 nM; inhibition at 0.01 µM ([3]; Table 1c): 17%; inhibition at 0.05 µM ([3]; Table 1c): -7%; inhibition at 0.1 µM ([3]; Table 1c): 4%; inhibition at 0.5 µM ([3]; Table 1c): 6%; inhibition at 1 µM ([3]; Table 1b): 23%; inhibition at 1 µM ([3]; Table 1c): 57%; inhibition at 5 µM ([3]; Table 1b): 66%; inhibition at 5 µM ([3]; Table 1c): 19%; inhibition at 10 µM ([3]; Table 1c): 56%; inhibition at 25 µM ([3]; Table 1b): 95%; inhibition at 50 µM ([3]; Table 1b): 97%; IC50 [3, 10]: 0.65 µM |
| CCCCCS(=O)(=O)Cc1nc2c(nc1CS(=O)(=O)CCCCC)C(=O)c1ccccc1C2=O [VIN6077] |  |  |  |  |  |  |  | 19% | -2% | 26% | 26% | 54% | 44% | 94% | 100% | 91% | 101% | 100% | 1200 nM | > 10 µM | inhibition at 0.01 µM ([3]; Table 1c): -11%; inhibition at 0.05 µM ([3]; Table 1c): -16%; inhibition at 0.1 µM ([3]; Table 1c): -13%; inhibition at 0.5 µM ([3]; Table 1c): 11%; inhibition at 1 µM ([3]; Table 1b): 24%; inhibition at 1 µM ([3]; Table 1c): -17%; inhibition at 5 µM ([3]; Table 1b): 51%; inhibition at 5 µM ([3]; Table 1c): 20%; inhibition at 10 µM ([3]; Table 1c): 27%; inhibition at 25 µM ([3]; Table 1b): 63%; inhibition at 50 µM ([3]; Table 1b): 76% |
